Laboratory results: patent publication US11324749B2, “Combination therapy for treatment of hematological diseases” (Incyte Corporation, priority 2018, dated 2022)

What was measured:
[1] = target: human JAK2 (a.a. 828-1132) (Homo sapiens (Human), UniProt O60674); test: In vitro JAK kinase assay (HTRF), JAK2 versus JAK1; assay type: biochemical; conditions: IC50 ratio, 1 mM ATP
Method: (§1) The catalytic activity of JAK1, JAK2, or JAK3 was assayed by measuring the phosphorylation of a biotinylated peptide. The phosphorylated peptide was detected by homogenous time resolved fluorescence (HTRF). […] Reactions are carried out at room temperature for 1 hour and then stopped with 20 μL 45 mM EDTA, 300 nM SA-APC, 6 nM Eu-Py20 in assay buffer (Perkin Elmer, Boston, Mass.). Binding to the Europium labeled antibody takes place for 40 minutes and HTRF signal was measured on a Fusion plate reader (Perkin Elmer, Boston, Mass.).

[2] = target: human JAK1 (a.a. 837-1142) (Homo sapiens, UniProt P23458); test: In vitro JAK kinase assay (HTRF), JAK1; assay type: biochemical; conditions: 1 mM ATP
Method: as §1

Sequence of human JAK2 (a.a. 828-1132) (O60674 828-1132): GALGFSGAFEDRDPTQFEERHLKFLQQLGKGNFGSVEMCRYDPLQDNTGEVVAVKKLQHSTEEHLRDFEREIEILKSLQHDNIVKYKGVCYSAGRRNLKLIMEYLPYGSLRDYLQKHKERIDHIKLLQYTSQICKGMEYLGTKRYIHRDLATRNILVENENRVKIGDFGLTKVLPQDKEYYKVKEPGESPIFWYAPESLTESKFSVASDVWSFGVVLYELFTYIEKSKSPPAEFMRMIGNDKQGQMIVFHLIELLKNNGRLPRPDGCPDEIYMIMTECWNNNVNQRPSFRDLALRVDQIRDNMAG

JAK2/JAK1 [1]	IC50 [2]	SMILES
>10	< 10 nM	N#CCC(C1CCN(c2nc3cccnc3o2)C1)n1cc(-c2ncnc3[nH]ccc23)cn1 (stereo not drawn) [Compound 7, 3-(1-[1,3]oxazolo[5,4-b]pyridin-2-ylpyrrolidin-3-yl)-3-[4-(7H-pyrrolo[2,3-d]pyrimidin-4-yl)-1H-pyrazol-1-yl]propanenitrile]
>10	< 10 nM	C[C@@H](O)CNCc1cc(OC2CCN([C@H]3C[C@](CC#N)(n4cc(-c5ncnc6[nH]ccc56)cn4)C3)CC2)nc(C(F)(F)F)c1 [Compound 24, {trans-3-(4-{[4-({[(2R)-2-hydroxypropyl]amino}methyl)-6-(trifluoromethyl)pyridin-2-yl]oxy}piperidin-1-yl)-1-[4-(7H-pyrrolo[2,3-d]pyrimidin-4-yl)-1H-pyrazol-1-yl]cyclobutyl}acetonitrile]
>10	< 10 nM	N#CCC1(n2cc(-c3ncnc4[nH]ccc34)cn2)CN(C2CCN(C(=O)Nc3ccc(F)cc3C(F)(F)F)CC2)C1 [Compound 2, 4-{3-(Cyanomethyl)-3-[4-(7H-pyrrolo[2,3-d]pyrimidin-4-yl)-1H-pyrazol-1-yl]azetidin-1-yl}-N-[4-fluoro-2-(trifluoromethyl)phenyl] piperidine-1-carboxamide]
>10	< 10 nM	N#CCC1(n2cc(-c3ncnc4[nH]ccc34)cn2)CN([C@H]2CC[C@@H](Oc3cc(CCO)nc(C(F)(F)F)n3)CC2)C1 [Compound 18, {1-(cis-4-{[6-(2-hydroxyethyl)-2-(trifluoromethyl)pyrimidin-4-yl]oxy}cyclohexyl)-3-[4-(7H-pyrrolo[2,3-d]pyrimidin-4-yl)-1H-pyrazol-1-yl]azetidin-3-yl}acetonitrile]
>10	< 10 nM	N#CC[C@]1(n2cc(-c3ncnc4[nH]ccc34)cn2)C[C@H](N2CCC(Oc3cc(CN4CCC[C@@H]4CO)cc(C(F)(F)F)n3)CC2)C1 [Compound 13, {trans-3-(4-{[4-{[(2R)-2-(hydroxymethyl)pyrrolidin-1-yl]methyl}-6-(trifluoromethyl)pyridin-2-yl]oxy}piperidin-1-yl)-1-[4-(7H-pyrrolo[2,3-d]pyrimidin-4-yl)-1H-pyrazol-1-yl]cyclobutyl}acetonitrile]
>10	< 10 nM	C[C@H](O)CNCc1cc(OC2CCN([C@H]3C[C@](CC#N)(n4cc(-c5ncnc6[nH]ccc56)cn4)C3)CC2)nc(C(F)(F)F)c1 [Compound 25, {trans-3-(4-{[4-({[(2S)-2-hydroxypropyl]amino}methyl)-6-(trifluoromethyl)pyridin-2-yl]oxy}piperidin-1-yl)-1-[4-(7H-pyrrolo[2,3-d]pyrimidin-4-yl)-1H-pyrazol-1-yl]cyclobutyl}acetonitrile]
>10	< 10 nM	CCNCc1cc(O[C@H]2CC[C@@H](N3CC(CC#N)(n4cc(-c5ncnc6[nH]ccc56)cn4)C3)CC2)nc(C(F)(F)F)c1 [Compound 19, {1-(cis--4{[4-[(ethylamino)methyl]-6-(trifluoromethyl)pyridin-2-yl]oxy}cyclohexyl)-3-[4-(7H-pyrrolo[2,3-d]pyrimidin-4-yl)-1H-pyrazol-1-yl]azetidin-3-yl}acetonitrile]
>10	< 10 nM	CC(C)(O)c1cc(O[C@H]2CC[C@@H](N3CC(CC#N)(n4cc(-c5ncnc6[nH]ccc56)cn4)C3)CC2)nc(C(F)(F)F)c1 [Compound 20, {1-(cis-4-{[4-(1-hydroxy-1-methylethyl)-6-(trifluoromethyl)pyridin-2-yl]oxy}cyclohexyl)-3-[4-(7H-pyrrolo[2,3-d]pyrimidin-4-yl)-1H-pyrazol-1-yl]azetidin-3-yl}acetonitrile]

More lines, now with the values behind:

SMILES	JAK2/JAK1 [1]	IC50 [2]
C[C@H](NC(=O)c1cc(F)c(N2CC(CC#N)(n3cc(-c4ncnc5[nH]ccc45)cn3)C2)cc1F)C(F)(F)F [Compound 16, 4-{3-(cyanomethyl)-3-[4-(7H-pyrrolo[2,3-d]pyrimidin-4-yl)-1H-pyrazol-1-yl]azetidin-1-yl}-2,5-difluoro-N-[(1S)-2,2,2-trifluoro-1-methylethyl]benzamide]	>10	< 10 nM
N#CCC1(n2cc(-c3ncnc4[nH]ccc34)cn2)CN([C@H]2CC[C@@H](Oc3cc(CN4CC[C@H](O)C4)cc(C(F)(F)F)n3)CC2)C1 [Compound 22, {1-(cis-4-{[4-{[(3S)-3-hydroxypyrrolidin-1-yl]methyl}-6-(trifluoromethyl)pyridin-2-yl]oxy}cyclohexyl)-3-[4-(7H-pyrrolo[2,3-d]pyrimidin-4-yl)-1H-pyrazol-1-yl]azetidin-3-yl}acetonitrile]	>10	< 10 nM
N#CC[C@]1(n2cc(-c3ncnc4[nH]ccc34)cn2)C[C@H](N2CCC(Oc3cc(CN4CCC[C@H]4CO)cc(C(F)(F)F)n3)CC2)C1 [Compound 12, {trans-3-(4-{[4-{[(2S)-2-(hydroxymethyl)pyrrolidin-1-yl]methyl}-6-(trifluoromethyl)pyridin-2-yl]oxy}piperidin-1-yl)-1-[4-(7H-pyrrolo[2,3-d]pyrimidin-4-yl)-1H-pyrazol-1-yl]cyclobutyl}acetonitrile]	>10	< 10 nM
C[C@@H](CO)NCc1cc(OC2CCN([C@H]3C[C@](CC#N)(n4cc(-c5ncnc6[nH]ccc56)cn4)C3)CC2)nc(C(F)(F)F)c1 [Compound 23, {trans-3-(4-{[4-({[(1S)-2-hydroxy-1-methylethyl]amino}methyl)-6-(trifluoromethyl)pyridin-2-yl]oxy}piperidin-1-yl)-1-[4-(7H-pyrrolo[2,3-d]pyrimidin-4-yl)-1H-pyrazol-1-yl]cyclobutyl}acetonitrile]	>10	< 10 nM
N#CCC(CN1CCN(C(=O)c2ccc(C#N)cc2F)CC1)n1ccc(-c2ncnc3[nH]ccc23)c1 (stereo not drawn) [Compound 9, 4-[(4-{3-cyano-2-[3-(7H-pyrrolo[2,3-d]pyrimidin-4-yl)-1H-pyrrol-1-yl]propyl}piperazin-1-yl)carbonyl]-3-fluorobenzonitrile]	>10	< 10 nM
N#CC[C@]1(n2cc(-c3ncnc4[nH]ccc34)cn2)C[C@H](N2CCN(C(=O)c3ccnc(C(F)(F)F)n3)CC2)C1 [Compound 10, [trans-1-[4-(7H-pyrrolo[2,3-d]pyrimidin-4-yl)-1H-pyrazol-1-yl]-3-(4-{[2-(trifluoromethyl)pyrimidin-4-yl]carbonyl}piperazin-1-yl)cyclobutyl]acetonitrile]	>10	< 10 nM
N#CCC(C1CCN(c2cccc(Cl)n2)C1)n1cc(-c2ncnc3[nH]ccc23)cn1 (single isomer, unassigned) [Compound 6, 3-[1-(6-chloropyridin-2-yl)pyrrolidin-3-yl]-3-[4-(7H-pyrrolo[2,3-d]pyrimidin-4-yl)-1H-pyrazol-1-yl]propanenitrile]	>10	< 10 nM
N#CC[C@]1(n2cc(-c3ncnc4[nH]ccc34)cn2)C[C@H](N2CCC(Oc3cc(CN4CC(O)C4)cc(C(F)(F)F)n3)CC2)C1 [Compound 11, {trans-3-(4-{[4-[(3-hydroxyazetidin-1-yl)methyl]-6-(trifluoromethyl)pyridin-2-yl]oxy}piperidin-1-yl)-1-[4-(7H-pyrrolo[2,3-d]pyrimidin-4-yl)-1H-pyrazol-1-yl]cyclobutyl}acetonitrile]	>10	< 10 nM
N#CCC1(n2cc(-c3ncnc4[nH]ccc34)cn2)CN([C@H]2CC[C@@H](Oc3cc(CN4CC[C@@H](O)C4)cc(C(F)(F)F)n3)CC2)C1 [Compound 21, {1-(cis-4-{[4-{[(3R)-3-hydroxypyrrolidin-1-yl]methyl}-6-(trifluoromethyl)pyridin-2-yl]oxy}cyclohexyl)-3-[4-(7H-pyrrolo[2,3-d]pyrimidin-4-yl)-1H-pyrazol-1-yl]azetidin-3-yl}acetonitrile]	>10	< 10 nM
N#CCC(CN1CCN(C(=O)c2ccc(C#N)cc2F)CC1)n1cc(-c2ncnc3[nH]ccc23)cn1 (stereo not drawn) [Compound 8, 4-[(4-{3-cyano-2-[4-(7H-pyrrolo[2,3-d]pyrimidin-4-yl)-1H-pyrazol-1-yl]propyl}piperazin-1-yl)carbonyl]-3-fluorobenzonitrile]	>10	< 10 nM
C[C@@H](O)c1nc2cnc3ccsc3c2n1[C@H]1CC[C@H](CC#N)OC1 [Compound 5, ((2R,5S)-5-{2-[(1R)-1-hydroxyethyl]-1H-imidazo[4,5-d]thieno[3,2-b]pyridin-1-yl}tetrahydro-2H-pyran-2-yl)acetonitrile]	>10	< 100 nM
N#CCC1(n2cc(-c3ncnc4[nH]ccc34)cn2)CN(C2CCN(C(=O)c3ccnc(C(F)(F)F)n3)CC2)C1 [Compound 3, [3-[4-(7H-pyrrolo[2,3-d]pyrimidin-4-yl)-1H-pyrazol-1-yl]-1-(1-{[2-(trifluoromethyl)pyrimidin-4-yl]carbonyl}piperidin-4-yl)azetidin-3-yl]acetonitrile]	>10	< 10 nM
N#CC[C@]1(n2cc(-c3ncnc4[nH]ccc34)cn2)C[C@H](N2CCC(Oc3cc(CCO)cc(C(F)(F)F)n3)CC2)C1 [Compound 26, {trans-3-(4-{[4-(2-hydroxyethyl)-6-(trifluoromethyl)pyridin-2-yl]oxy}piperidin-1-yl)-1-[4-(7H-pyrrolo[2,3-d]pyrimidin-4-yl)-1H-pyrazol-1-yl]cyclobutyl}acetonitrile]	>10	< 10 nM
